The results in this text go back to PubChem BioAssay AID720665 (NMMLSC, 2013).

The subject of this assay is TALL-104 thapsigargin calcium, Fura Red flow cytometry. In words: blockers of intracellular Ca signaling in TALL-104 – Fura Red, TALL-104 cells, CherryPick01, mechanism study for lytic granule exocytosis inhibitor project (AID 720665). Particulars: stronger effect = higher value; dose or concentration not given here.

Records with an inconclusive call do not appear. Calls of active or inactive are those of the source.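 How the source made its calls: active means inhibition of the calcium rise above 50%; inconclusive means dimming of resting cell dye signal by over 25%; inactive means inhibition below 50%.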

What is called inhibition is the drop in the measured response relative to a control, in per cent. As for `O=C(CN1C(=O)/C(=C\c2cccc(Br)c2)Oc2ccccc21)NCCCN1CCOCC1`, the inhibition is 1% (inactive).

For `Fc1ccc(/C=C\c2nccc3c2[nH]c2ccccc23)cc1`, the inhibition is 37.7% (inactive).
